Assays:
CDK2/CycE = CDK2/CycE (Homo sapiens (Human), UniProt P24941); test: CDK2/CycE kinase assay (TR-FRET, 10 μM ATP); type: biochemical; conditions: Method 2a
Source text: 2a. CDK2/CycE Kinase Assay:
CDK2/CycE-inhibitory activity of compounds of the present invention was quantified employing the CDK2/CycE TR-FRET assay as described in the following paragraphs:
Recombinant fusion proteins of GST and human CDK2 and of GST and human CycE, expressed in insect cells (Sf9) and purified by Glutathion-Sepharose affinity chromatography, were purchased from ProQinase GmbH (Freiburg, Germany). As substrate for the kinase reaction biotinylated peptide biotin-Ttds-YISPLKSPYKISEG (C-terminus in amid form) was used which can be purchased e.g. form the company JERINI Peptide Technologies (Berlin, Germany).
(§1) For the assay 50 nl of a 100 fold concentrated solution of the test compound in DMSO was pipetted into a black low volume 384 well microtiter plate (Greiner Bio-One, Frickenhausen, Germany), 2 μl of a solution of CDK2/CycE in aqueous assay buffer [50 mM Tris/HCl pH 8.0, 10 mM MgCl2, 1.0 mM dithiothreitol, 0.1 mM sodium ortho-vanadate, 0.01% (v/v) Nonidet-P40 (Sigma)] were added and the mixture was incubated for 15 min at 22° C. to allow pre-binding of the test compounds to the enzyme before the start of the kinase reaction. Then the kinase reaction was started by the addition of 3 μl of a solution of adenosine-tri-phosphate (ATP, 16.7 μM=>final conc. in the 5 μl assay volume is 10 μM) and substrate (1.25 μM=>final conc. in the 5 μl assay volume is 0.75 μM) in assay buffer and the resulting mixture was incubated for a reaction time of 25 min at 22° C. The concentration of CDK2/CycE was adjusted depending of the activity of the enzyme lot and was chosen appropriate to have the assay in the linear range, typical concentrations were in the range of 130 ng/mL. The reaction was stopped by the addition of 5 μl of a solution of TR-FRET detection reagents (0.2 μM streptavidine-XL665 [Cisbio Bioassays, Codolet, France] and 1 nM anti-RB(pSer807/pSer811)-antibody from BD Pharmingen [#558389] and 1.2 nM LANCE EU-W1024 labeled anti-mouse IgG antibody [Perkin-Elmer, product no. AD0077]) in an aqueous EDTA-solution (100 mM EDTA, 0.2% (w/v) bovine serum albumin in 100 mM HEPES/NaOH pH 7.0).
(§2) The resulting mixture was incubated 1 h at 22° C. to allow the formation of complex between the phosphorylated biotinylated peptide and the detection reagents. Subsequently the amount of phosphorylated substrate was evaluated by measurement of the resonance energy transfer from the Eu-chelate to the streptavidine-XL. Therefore, the fluorescence emissions at 620 nm and 665 nm after excitation at 350 nm was measured in a TR-FRET reader, e.g. a Rubystar (BMG Labtechnologies, Offenburg, Germany) or a Viewlux (Perkin-Elmer). The ratio of the emissions at 665 nm and at […] was taken as the measure for the amount of phosphorylated substrate. The data were normalised (enzyme reaction without inhibitor=0% inhibition, all other assay components but no enzyme=100% inhibition).

CDK9/CycT1 = CDK9/CycT1 (Homo sapiens (Human), UniProt P50750); test: CDK9/CycT1 high ATP kinase assay (TR-FRET, 2 mM ATP); type: biochemical; conditions: Method 1b
Sequence of CDK9/CycT1 (P50750 whole entry): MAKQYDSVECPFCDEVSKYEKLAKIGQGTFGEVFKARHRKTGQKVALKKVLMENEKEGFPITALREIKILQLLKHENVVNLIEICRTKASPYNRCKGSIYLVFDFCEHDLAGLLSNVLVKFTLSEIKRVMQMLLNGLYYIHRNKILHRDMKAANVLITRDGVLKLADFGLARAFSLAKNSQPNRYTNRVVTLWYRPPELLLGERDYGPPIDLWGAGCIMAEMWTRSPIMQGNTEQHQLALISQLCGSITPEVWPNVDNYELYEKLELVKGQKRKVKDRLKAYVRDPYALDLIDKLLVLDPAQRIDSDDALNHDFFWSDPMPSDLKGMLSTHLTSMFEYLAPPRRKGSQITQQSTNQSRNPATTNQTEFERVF
Sequence of CDK9/CycT1 (O60563 whole entry partner): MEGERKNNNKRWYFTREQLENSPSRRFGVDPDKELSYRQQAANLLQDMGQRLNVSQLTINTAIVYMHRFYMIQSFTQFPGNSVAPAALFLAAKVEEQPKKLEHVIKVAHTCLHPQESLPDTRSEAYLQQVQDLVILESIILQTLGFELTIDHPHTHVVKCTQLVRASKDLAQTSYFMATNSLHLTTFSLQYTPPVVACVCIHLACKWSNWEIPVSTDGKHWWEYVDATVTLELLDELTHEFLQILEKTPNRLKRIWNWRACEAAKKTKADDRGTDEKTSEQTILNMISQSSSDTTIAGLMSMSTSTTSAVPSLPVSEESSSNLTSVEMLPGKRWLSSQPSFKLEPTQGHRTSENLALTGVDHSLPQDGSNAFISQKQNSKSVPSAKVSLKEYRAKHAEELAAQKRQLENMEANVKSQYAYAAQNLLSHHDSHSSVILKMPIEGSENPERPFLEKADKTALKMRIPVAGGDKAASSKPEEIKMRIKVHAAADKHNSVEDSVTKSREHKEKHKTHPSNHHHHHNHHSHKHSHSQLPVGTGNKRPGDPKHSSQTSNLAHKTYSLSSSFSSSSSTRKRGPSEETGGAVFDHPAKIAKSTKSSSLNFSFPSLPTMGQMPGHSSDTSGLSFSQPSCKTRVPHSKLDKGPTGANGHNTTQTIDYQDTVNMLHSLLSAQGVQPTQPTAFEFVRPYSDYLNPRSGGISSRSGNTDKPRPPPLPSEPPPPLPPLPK
Experimental: 1b. CDK9/CycT1 High ATP Kinase Assay
CDK9/CycT1-inhibitory activity of compounds of the present invention at a high ATP concentration after preincubation of enzyme and test compounds was quantified employing the CDK9/CycT1 TR-FRET assay as described in the following paragraphs.
Recombinant full-length His-tagged human CDK9 and CycT1, expressed in insect cells and purified by Ni-NTA affinity chromatography, were purchase from Invitrogen (Cat. No PV4131). As substrate for the kinase reaction biotinylated peptide biotin-Ttds-YISPLKSPYKISEG (C-terminus in amid form) was used which can be purchased e.g. form the company JERINI peptide technologies (Berlin, Germany).
as §1, with “CDK9/CycT1” for “CDK2/CycE”, “3.3 mM=>final conc. in the 5 μl assay volume is 2 mM) and substrate (1.67” for “16.7”, “1” for “10 μM) and substrate (1.25 μM=>final conc. in the 5 μl assay volume is 0.75”, “0.5 μg/mL.” for “130 ng/mL.”
as §2, with “HTRF” for “TR-FRET”

Row | IC50 (CDK2/CycE) | IC50 (CDK9/CycT1) | SMILES
1 | 170 nM | 2 nM | COc1cc(F)ccc1-c1cc(Nc2cc(CS(C)(=O)=O)ccn2)ncc1F [Example 1, 5-Fluoro-4-(4-fluoro-2-methoxyphenyl)-N-{4-[(methylsulfonyl)methyl]pyridin-2-yl}pyridin-2-amine]
2 | 70 nM | 2 nM | COc1cc(F)ccc1-c1cc(Nc2cc(CS(C)(=O)=O)cc(C)n2)ncc1F [Example 2, 5-Fluoro-4-(4-fluoro-2-methoxyphenyl)-N-{6-methyl-4-[(methylsulfonyl)methyl]pyridin-2-yl}pyridin-2-amine]
3 | 65 nM | 2 nM | COc1cc(F)ccc1-c1cc(Nc2cc(CS(C)(=O)=O)cc(F)n2)ncc1F [Example 3, 5-Fluoro-4-(4-fluoro-2-methoxyphenyl)-N-{6-fluoro-4-[(methylsulfonyl)methyl]pyridin-2-yl}pyridin-2-amine]
4 | 52 nM | 3 nM | COc1cc(F)ccc1-c1cc(Nc2cc(CS(C)(=O)=O)cc(C(F)(F)F)n2)ncc1F [Example 4, 5-Fluoro-4-(4-fluoro-2-methoxyphenyl)-N-{4-[(methylsulfonyl)methyl]-6-(trifluoromethyl)pyridin-2-yl}pyridin-2-amine]
5 | 7 nM | 1 nM | COc1cc(F)ccc1-c1cc(Nc2cc(CS(C)(=O)=O)cc(C(F)F)n2)ncc1F [Example 5, N-{6-(Difluoromethyl)-4-[(methylsulfonyl)methyl]pyridin-2-yl}-5-fluoro-4-(4-fluoro-2-methoxyphenyl)pyridin-2-amine]
